Experimental findings from patent US12522601B2, “1,3,4-oxadiazole derivative compounds as histone deacetylase 6 inhibitor, and the pharmaceutical composition comprising the same” (CHONG KUN DANG PHARMACEUTICAL CORP., priority 2020, dated 2026) are described below.

One experiment has as its target T1, human recombinant HDAC1 (Homo sapiens, UniProt Q13547).
T1 construct: purchased Enzo Life Sciences, Inc. BML-SE456
Description: In vitro HDAC enzyme activity inhibition assay, HDAC1 (HDAC Fluorimetric Drug Discovery Kit). It is filed as biochemical. As to conditions: human recombinant HDAC1, Fluor de Lys-SIRT1 substrate 10 μM, 30° C. for 60 minutes. As to the method:
(§1) In order to confirm the selectivity of the compounds represented by Chemical Formula I of the present invention to HDAC6 through HDAC1 and HDAC6 enzyme activity inhibition experiments, a comparison experiment was performed using the material that has already been developed as a control group.
(§2) HDAC enzyme activity was measured using the HDAC Fluorimetric Drug Discovery Kit (Enzo Life Sciences, Inc., BML-AK511, 516). For the HDAC1 enzyme activity test, human recombinant HDAC1 (BML-SE456) was used as an enzyme source and Fluor de Lys®-SIRT1 (BNL-KI177) was used as a substrate. After dispensing 5-fold diluted compounds into a 96-well plate, 0.3 μg of enzyme and 10 μM substrate were added to each well of the plate and allowed to react at 30° C. for 60 minutes. Next, Fluor de Lys® Developer II (BML-KI176) was added and reacted for 30 minutes to complete the reaction, and then the fluorescence values (Ex 360, Em 460) were measured using a multi-plate reader (Flexstation 3, Molecular Device). The HDAC6 enzymes were tested using human recombinant HDAC6 (382180) from Calbiochem Inc., according to the same protocol as the HDAC1 enzyme activity test method. With respect to the final result values, respective IC50 values were calculated using GraphPad Prism 4.0 program, and results thereof were summarized in Table 5 below.

The target in the next experiment is T2, human recombinant HDAC6 (Homo sapiens, UniProt Q9UBN7).
T2 construct: purchased Calbiochem Inc. 382180
T2 sequence (Q9UBN7 1-1215): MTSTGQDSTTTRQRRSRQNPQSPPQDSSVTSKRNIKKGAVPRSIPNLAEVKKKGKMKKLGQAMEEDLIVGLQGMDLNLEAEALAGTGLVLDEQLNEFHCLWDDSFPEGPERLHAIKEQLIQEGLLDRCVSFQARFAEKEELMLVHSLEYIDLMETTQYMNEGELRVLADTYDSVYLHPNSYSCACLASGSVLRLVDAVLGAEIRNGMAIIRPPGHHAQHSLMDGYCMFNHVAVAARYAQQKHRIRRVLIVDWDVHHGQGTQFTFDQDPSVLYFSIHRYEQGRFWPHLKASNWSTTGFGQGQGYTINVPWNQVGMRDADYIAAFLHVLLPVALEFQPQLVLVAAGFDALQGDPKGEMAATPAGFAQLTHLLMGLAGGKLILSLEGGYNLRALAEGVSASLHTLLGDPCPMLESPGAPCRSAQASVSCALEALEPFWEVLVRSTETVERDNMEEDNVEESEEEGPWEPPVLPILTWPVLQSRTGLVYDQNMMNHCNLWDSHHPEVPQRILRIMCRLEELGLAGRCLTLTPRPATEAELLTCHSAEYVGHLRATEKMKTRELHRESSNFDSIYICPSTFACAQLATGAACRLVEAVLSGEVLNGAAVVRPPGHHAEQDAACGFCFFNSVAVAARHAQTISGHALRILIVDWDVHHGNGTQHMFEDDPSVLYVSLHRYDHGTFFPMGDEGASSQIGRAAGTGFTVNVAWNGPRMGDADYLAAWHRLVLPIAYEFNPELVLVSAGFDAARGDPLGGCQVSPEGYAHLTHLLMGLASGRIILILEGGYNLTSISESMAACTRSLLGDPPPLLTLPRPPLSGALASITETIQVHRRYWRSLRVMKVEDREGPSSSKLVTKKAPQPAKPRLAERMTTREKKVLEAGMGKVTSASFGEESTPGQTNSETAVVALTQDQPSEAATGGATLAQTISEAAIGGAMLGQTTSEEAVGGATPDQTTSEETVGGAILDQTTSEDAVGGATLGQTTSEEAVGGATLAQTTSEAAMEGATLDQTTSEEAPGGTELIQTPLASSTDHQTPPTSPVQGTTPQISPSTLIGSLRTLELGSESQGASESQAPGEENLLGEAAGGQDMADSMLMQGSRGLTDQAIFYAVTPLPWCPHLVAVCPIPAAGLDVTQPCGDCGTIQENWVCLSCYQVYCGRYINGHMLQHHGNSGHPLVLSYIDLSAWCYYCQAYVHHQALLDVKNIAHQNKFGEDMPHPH
Nature of the experiment: In vitro HDAC enzyme activity inhibition assay, HDAC6 (HDAC Fluorimetric Drug Discovery Kit). It counts as biochemical. The note with it: for HDAC6 Selectivity (fold): HDAC6 versus HDAC1; for pIC50: human recombinant HDAC6, same protocol as the HDAC1 test. As to the method:
as §1, §2

pIC50: −log10 of the molar value. A value given as a limit tells only on which side of the number the result lay.

T1 sequence (Q13547 whole entry): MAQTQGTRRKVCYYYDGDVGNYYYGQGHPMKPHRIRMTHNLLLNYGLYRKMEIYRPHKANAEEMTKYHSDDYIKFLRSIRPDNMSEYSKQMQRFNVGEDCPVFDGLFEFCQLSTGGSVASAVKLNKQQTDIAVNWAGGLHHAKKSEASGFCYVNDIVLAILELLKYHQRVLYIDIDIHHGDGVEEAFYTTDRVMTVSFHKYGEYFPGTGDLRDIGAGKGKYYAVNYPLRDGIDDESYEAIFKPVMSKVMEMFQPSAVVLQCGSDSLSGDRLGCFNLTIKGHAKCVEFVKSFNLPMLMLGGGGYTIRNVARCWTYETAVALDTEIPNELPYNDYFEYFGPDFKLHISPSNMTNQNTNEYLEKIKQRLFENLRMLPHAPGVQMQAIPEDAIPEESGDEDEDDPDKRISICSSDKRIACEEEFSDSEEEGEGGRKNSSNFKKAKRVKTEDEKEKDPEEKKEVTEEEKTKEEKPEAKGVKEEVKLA

As to `CC(=O)N1CCN(C(=O)N(Cc2cn3ccc(-c4nnc(C(F)F)o4)cc3n2)c2cccc(F)c2)CC1` [Compound 4092, 4-acetyl-N-((7-(5-(difluoromethyl)-1,3,4-oxadiazol-2-yl)imidazo[1,2-a]pyridin-2-yl)methyl)-N-(3-fluorophenyl)piperazine-1-carboxamide], the pIC50 (as a rule, −log10 of the IC50, conventionally taken in molar units) at human recombinant HDAC1 was below 4.30. On human recombinant HDAC6, the “HDAC6 Selectivity (fold)” value was determined as 187 fold and the negative logarithm of the IC50 (pIC50) is 6.57.
The matching figures for `Fc1ccc(NCc2cn3ccc(-c4nnc(C(F)F)o4)cc3n2)cn1` [Compound 3676, N-((7-(5-(difluoromethyl)-1,3,4-oxadiazol-2-yl)imidazo[1,2-a]pyridin-2-yl)methyl)-6-fluoropyridin-3-amine]: below 4.30, 354 fold and 6.85.
`CC(=O)c1cccc(NCc2cn3ccc(-c4nnc(C(F)F)o4)cc3n2)c1` [Compound 3669]: the results for the pIC50 on human recombinant HDAC1 and at human recombinant HDAC6 were below 4.30 and 6.93, respectively. In addition, the “HDAC6 Selectivity (fold)” value at human recombinant HDAC6 was determined as 426 fold.
On to `O=C(C1CN(C2CCCCC2)C1)N(Cc1cn2ccc(-c3nnc(C(F)F)o3)cc2n1)c1ccccc1` [Compound 4164, 1-cyclohexyl-N-((7-(5-(difluoromethyl)-1,3,4-oxadiazol-2-yl)imidazo[1,2-a]pyridin-2-yl)methyl)-N-phenylazetidine-3-carboxamide], for which, on human recombinant HDAC1, the pIC50 was below 4.30. Also, at human recombinant HDAC6, the “HDAC6 Selectivity (fold)” value is 147 fold and the pIC50 is 6.47.
On the same counts, the results for `O=C(C1CCC1)N1CCC(C(=O)N(Cc2cn3ccc(-c4nnc(C(F)F)o4)cc3n2)c2cccc(F)c2)CC1` [Compound 4150, 1-(cyclobutanecarbonyl)-N-((7-(5-(difluoromethyl)-1,3,4-oxadiazol-2-yl)imidazo[1,2-a]pyridine-2-yl)methyl)-N-(3-fluorophenyl)piperidine-4-carboxamide] are below 4.30, 234 fold and 6.67.
For the molecule `CN1CCN(C(=O)N(Cc2cn3ccc(-c4nnc(C(F)F)o4)cc3n2)c2ccccc2)CC1` [Compound 3784, N-((7-(5-(difluoromethyl)-1,3,4-oxadiazol-2-yl)imidazo[1,2-a]pyridin-2-yl)methyl)-4-methyl-N-phenylpiperazine-1-carboxamide], the pIC50 on human recombinant HDAC1 was below 4.30. Moreover, on human recombinant HDAC6, the “HDAC6 Selectivity (fold)” value is on record as 727 fold and the pIC50 is 7.16.
The matching figures for `O=C(C1CCN(C2CCC(F)(F)CC2)CC1)N(Cc1cn2ccc(-c3nnc(C(F)F)o3)cc2n1)c1ccccc1` [Compound 4121, 1-(4,4-difluorocyclohexyl)-N-((7-(5-(difluoromethyl)-1,3,4-oxadiazol-2-yl)imidazo[1,2-a]pyridin-2-yl)methyl)-N-phenylpiperidine-4-carboxamide]: below 4.30, 122 fold and 6.39.
For `CS(=O)(=O)N1CC(C(=O)N(Cc2cn3ccc(-c4nnc(C(F)F)o4)cc3n2)c2cccc(F)c2)C1` [Compound 4203, N-((7-(5-(difluoromethyl)-1,3,4-oxadiazol-2-yl)imidazo[1,2-a]pyridin-2-yl)methyl)-N-(3-fluorophenyl)-1-(methylsulfonyl) azetidine-3-carboxamide], the pIC50 on human recombinant HDAC1 was below 4.30; on human recombinant HDAC6, 6.77. Besides, at human recombinant HDAC6, the “HDAC6 Selectivity (fold)” value came out at 295 fold.
The matching figures for `O=C(C1CCN(C(=O)C(F)(F)F)CC1)N(Cc1cn2ccc(-c3nnc(C(F)F)o3)cc2n1)c1ccccc1` [Compound 4127, N-((7-(5-(difluoromethyl)-1,3,4-oxadiazol-2-yl)imidazo[1,2-a]pyridin-2-yl)methyl)-N-phenyl-1-(2,2,2-trifluoroacetyl)piperidine-4-carboxamide]: below 4.30, 6.21 and 82 fold.
On to `COC(=O)N1CCC(C(=O)N(Cc2cn3ccc(-c4nnc(C(F)F)o4)cc3n2)c2ccccc2)CC1` [Compound 4129, methyl 4-(((7-(5-(difluoromethyl)-1,3,4-oxadiazol-2-yl)imidazo[1,2-a]pyridin-2-yl)methyl)(phenyl)carbamoyl)piperidine-1-carboxylate], for which the pIC50 on human recombinant HDAC1 was below 4.30; on human recombinant HDAC6, 6.40. In addition, the “HDAC6 Selectivity (fold)” value at human recombinant HDAC6 is on record as 125 fold.
The matching figures for `CC(C)N1CCC(C(=O)N(Cc2cn3ccc(-c4nnc(C(F)F)o4)cc3n2)c2ccccc2)CC1` [Compound 4116, N-((7-(5-(difluoromethyl)-1,3,4-oxadiazol-2-yl)imidazo[1,2-a]pyridin-2-yl)methyl)-1-isopropyl-N-phenylpiperidine-4-carboxamide]: below 4.30, 6.50 and 159 fold.
As for `O=C(C1CN(C2COC2)C1)N(Cc1cn2ccc(-c3nnc(C(F)F)o3)cc2n1)c1ccccc1` [Compound 4163, N-((7-(5-(difluoromethyl)-1,3,4-oxadiazol-2-yl)imidazo[1,2-a]pyridin-2-yl)methyl)-1-(oxetan-3-yl)-N-phenylazetidine-3-carboxamide], on human recombinant HDAC1, the pIC50 was below 4.30. Besides, at human recombinant HDAC6, the “HDAC6 Selectivity (fold)” value is 122 fold and the pIC50 is 6.39.
As to `Fc1cccc(NCc2cn3ccc(-c4nnc(C(F)F)o4)cc3n2)c1` [Compound 3670, N-((7-(5-(difluoromethyl)-1,3,4-oxadiazol-2-yl)imidazo[1,2-a]pyridin-2-yl)methyl)-3-fluoroaniline], the pIC50 on human recombinant HDAC1 was below 4.30. At human recombinant HDAC6, the “HDAC6 Selectivity (fold)” value is 226 fold and the pIC50 was 6.66.
On the same counts, the results for `O=C(C1CN(C(=O)C(F)(F)F)C1)N(Cc1cn2ccc(-c3nnc(C(F)F)o3)cc2n1)c1cccc(F)c1` [Compound 4202, N-((7-(5-(difluoromethyl)-1,3,4-oxadiazol-2-yl)imidazo[1,2-a]pyridin-2-yl)methyl)-N-(3-fluorophenyl)-1-(2,2,2-trifluoroacetyl) azetidine-3-carboxamide] are below 4.30, 274 fold and 6.74.
Turning to `CN1CC(C(=O)N(Cc2cn3ccc(-c4nnc(C(F)F)o4)cc3n2)c2ccccc2)C1` [Compound 4158, N-((7-(5-(difluoromethyl)-1,3,4-oxadiazol-2-yl)imidazo[1,2-a]pyridin-2-yl)methyl)-1-methyl-N-phenylazetidine-3-carboxamide], the pIC50 on human recombinant HDAC1 was below 4.30. Moreover, at human recombinant HDAC6, the “HDAC6 Selectivity (fold)” value stood at 112 fold and the pIC50 is 6.35.
As for `O=C(N1CCN(C2CCC(F)(F)CC2)CC1)N(Cc1cn2ccc(-c3nnc(C(F)F)o3)cc2n1)c1ccccc1` [Compound 4039, 4-(4,4-difluorocyclohexyl)-N-((7-(5-(difluoromethyl)-1,3,4-oxadiazol-2-yl)imidazo[1,2-a]pyridin-2-yl)methyl)-N-phenylpiperazine-1-carboxamide], the values for the negative-log IC50 (pIC50) on human recombinant HDAC1 and at human recombinant HDAC6 were below 4.30 and 6.83, respectively. For the same molecule, the “HDAC6 Selectivity (fold)” value at human recombinant HDAC6 is on record as 338 fold.
